Laboratory results from patent publication US6235516A, “Biocatalysts with amine acylase activity” (Novartis AG, priority 1996, dated 2001).
Several values for one entry are separate records, joined by “and”; a condition that tells them apart may be missing. Equal entries are not always repeated. Where two headings read alike, the source gives them in different places.

What was measured:
[1] = target: T1, acylase from Rhodococcus equi Ac6 (Rhodococcus (subgen. Prescottella) equi, UniProt A0A3S5Y3Z2); assay: Enzymatic hydrolysis of racemic amides with partially purified acylase from Rhodococcus equi Ac6; format: biochemical; parameters: e.e. (R)-Amide: unit not given here
T1 construct: N-terminus […]
Method: To 10 ml of a 20 mM solution of each of the racemic amides shown below 1 in 0.1 M phosphate buffer pH 7.0, 5 ml (1.3 units) of the enzyme is added and the solutions are shaken at 100 rpm and 30° C. [drawing 10] [drawing 11]
When the conversion reaches about 50% (checked by HPLC) the solutions are acidified to pH 2 by adding 1 N HCl and extracted three times with dichloromethane to obtain the unconverted amides. The aqueous layers are neutralized with 1 N NaOH solution and extracted again three times with dichloromethane to recover the formed amines. Both organic phases are dried with MgSO4, filtered and the solvent is distilled off. The amides are used directly for optical purity determinations (HPLC), whereas the obtained amines are converted to the acetamides by adding 100 μl triethylamine and 100 μl acetic anhydride to each sample and then analyzed for the optical purity by "chiral" HPLC.
The experiments are carried out in the same manner as described in example 22.

AcR5b-acylase = assay: Activity of the AcR5b-acylase in the presence of potential enzyme activators and inhibitors; format: biochemical, Arthrobacter aurescens AcR5b; settings: for Relative activity (%), EDTA reactivation: preincubated with 1 mM metal cation, then 10 mM EDTA for 30 min
Method: 40 μl of the concentrated enzyme solution from example 4d) are mixed with 360 μl of 1 and 10 mM solutions of the potential activators/inhibitors in 100 mM Tris-HCl buffer, pH 8, and incubated at room temperature for 30 min. These preincubated acylase solutions are used as the enzyme source for activity assays in the presence of the activator/inhibitor (see example 8) in the concentration used for the preincubation. The incubation time is 12 min. For the EDTA reactivation the acylase is first preincubated with the metal cation at 1 mM concentration (see above). After adding EDTA to a final concentration of 10 mM in form of a 110 mM solution in 100 mM Tris-HCl, pH 8, the acylase is preincubated a second time for 30 min., before the standard activity assay is performed.

Ac6-acylase = Ac6-acylase (Rhodococcus (subgen. Prescottella) equi, UniProt A0A3S5Y3Z2); assay: Activity of the Ac6-acylase in the presence of potential enzyme activators and inhibitors; format: biochemical; settings: for activity at 10000 µM: read-out: Relative activity (%)
Method: After an incubation at 30° C. for a time period allowing the liberation of 0 to 3 mM of 1-phenylethylamine 400 μl of ice cooled acetone are added to stop the reaction. The tube is mixed vigorously, put on ice for about 15 min., and then is centrifuged for 4 min at 11500 rpm in a Biofuge 15 (Heraeus Sepatech, Osterode Germany). The supernatant is subjected to quantitative HPLC analysis. If activity assays contain crude extracts of cells grown in the presence of N-acetyl-1-phenylethylamine a control assay without substrate has to be prepared in parallel in order to determine the 1-phenylethylamine content of the crude extract. For HPLC analysis sample volumes of 20 μl are injected onto a RP-8 column (LiChroCART 125-4, LiChrospher 100 RP-8 ([…]), guard column: LiChroCART 4-4, LiChrospher 100 RP-8 ([…]), Merck Co., Darmstadt Germany). The following gradient with a flow rate of 1.25 ml/min. is applied for the separation of the substrate N-acetyl-1-phenylethylamine and the product 1-phenylethylamine:
One unit (U) of acylase activity is defined as the amount of enzyme catalyzing the liberation of 1 μmol of 1-phenylethylamine per minute. The acylase concentration in the samples is calculated according to the following formula: […]
In the presence of various potential enzyme activators and inhibitors activity assays are performed according to the scheme given in example 1 by applying the following conditions and final concentrations:
(S)-N-acetyl-1-phenylethylamine 20 mM
Purified acylase from example 4 c 0.02 U/ml
Incubation time 120 min.

[2] = tested on: Rhodococcus globerulus K1/1 acylase; format: biochemical
Method: The standard assay for K1/1-acylase activity used for monitoring the purification and for the enzymological characterization is performed by mixing 20 μl of an enzyme sample with 380 μl of a 5.55 mM solution of (S)-2-acetylamino-1-phenyl-4-pentene in 69 mM potassium phosphate buffer, pH 7, and incubating at 23° C. The dilution of the acylase and the incubation time are chosen so that not more than 1.3 mM of product are formed. The reaction is stopped by addition of 800 μl ice cold methanol. After centrifugation for 4 min at 11500 rpm in a Biofuge 15 (Heraeus Sepatech, Osterode, Germany) the supernatant is subjected to quantitative HPLC analysis (see example 1).
27.1. Activity of the Rhodococcus globerulus K1/1 acylase in the presence of potential enzyme activators and inhibitors: […]

[3] = compound 1 mM, 30 min preincubation, Tris-HCl pH 8, none = 100
[4] = compound 10 mM, 30 min preincubation, values printed in brackets: precipitates formed, none = 100
[5] = compound 1 mM, 20 mM (S)-N-acetyl-1-phenylethylamine, Tris-HCl pH 8, 120 min, none = 100
[6] = compound 10 mM, values in brackets: precipitates formed during the assay, none = 100

Chain of Ac6-acylase (A0A3S5Y3Z2 entry or part of it): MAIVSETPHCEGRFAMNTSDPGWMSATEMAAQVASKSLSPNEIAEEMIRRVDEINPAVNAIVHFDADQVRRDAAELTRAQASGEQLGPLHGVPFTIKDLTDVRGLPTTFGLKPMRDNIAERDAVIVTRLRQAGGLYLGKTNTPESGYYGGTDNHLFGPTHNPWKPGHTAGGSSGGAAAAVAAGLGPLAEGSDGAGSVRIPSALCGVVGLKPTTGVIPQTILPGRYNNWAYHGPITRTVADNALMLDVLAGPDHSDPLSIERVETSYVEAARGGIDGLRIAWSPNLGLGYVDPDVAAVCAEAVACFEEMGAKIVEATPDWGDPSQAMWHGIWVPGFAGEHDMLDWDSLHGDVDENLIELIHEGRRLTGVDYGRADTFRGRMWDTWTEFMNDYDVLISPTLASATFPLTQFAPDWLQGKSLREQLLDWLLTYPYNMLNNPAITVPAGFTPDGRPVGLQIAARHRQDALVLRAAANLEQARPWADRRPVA
T1 sequence (A0A3S5Y3Z2 1-487): as the sequence (A0A3S5Y3Z2 entry or part of it) above

Row | Compound | Relative activity (%) (AcR5b-acylase; [3]) | Relative activity (%) (AcR5b-acylase; [4]) | Relative activity (%) (Ac6-acylase; [5]) | Relative activity (%) (Ac6-acylase; [6]) | Relative activity (%) ([2]; compound 1 mM, none = 100) | Relative activity (%) ([2]; compound 10 mM, none = 100) | other results
1 | CC(=O)NC(C)CCc1ccccc1 (racemic) [Substrate 9a] |  |  |  |  |  |  | Selectivity E ([1]; enantioselectivity of the hydrolysis): 230; e.e. (S)-Amine ([1]; formed amine, analysed as acetamide): 92.1; e.e. (R)-Amide ([1]; unconverted amide, chiral HPLC): > 99.9
2 | [Cl][Ni][Cl] [NiCl2] | 14% | 0% | 40% | 10% | 87% | 80% | Relative activity (%), EDTA reactivation (AcR5b-acylase): 85%
3 | [Cl][Fe]([Cl])[Cl] [FeCl3] | 121% | 132% | 101% | 92% | 101% | 37% | 
4 | [Cl-].[Cl-].[Mg+2] [MgCl2] | 103% | 93% | 90% | 99% | 101% | 87% | 
5 | [Cl][Cu][Cl] [CuCl2] | 50% | 0% | 88% | 41% | 66% | 50% | Relative activity (%), EDTA reactivation (AcR5b-acylase): 86%
6 | [Cl][Pb][Cl] [PbCl2] | 79% | 9% | 95% | 99% |  |  | Relative activity (%), EDTA reactivation (AcR5b-acylase): 102%
7 | [Cl][Cd][Cl] [CdCl2] | 5% | 0% | 85% | 38% |  |  | Relative activity (%), EDTA reactivation (AcR5b-acylase): 79%
8 | O=C(O)CN(CCN(CC(=O)O)CC(=O)O)CC(=O)O [EDTA] |  |  |  |  |  |  | Relative activity (%) (AcR5b-acylase): 121; Relative activity (%) (AcR5b-acylase; pH 8): 119; Relative activity (%) (Ac6-acylase; pH 8): 102; activity at 10000 µM (Ac6-acylase): 104%; Relative activity (%) [2]: 99 and 89
9 | O=C(O)CC(O)(CC(=O)O)C(=O)O [Citrate] | 122% | 100% | 106% |  | 113% | 133% | activity at 10000 µM (Ac6-acylase; [6]): 91%
10 | O=C(O)c1cc[c]([Hg+])cc1.[OH-] [p-hydroxy-mercuribenzoate] |  |  |  |  | 89% | 96% | 
11 | [Cl-].[Cl-].[Co+2] [CoCl2] | 26% | 15% | 69% | 83% | 97% | 86% | Relative activity (%), EDTA reactivation (AcR5b-acylase): 91%
12 | [Cl-].[Cl-].[Zn+2] [ZnCl2] | < 1.5% | 0% | 68% | 47% | 66% | 0% | Relative activity (%), EDTA reactivation (AcR5b-acylase): 75%
13 | NC(=O)CI [Iodoacetamide] | 96% | 29% | 87% |  | 104% | 67% | activity at 10000 µM (Ac6-acylase; [6]): 32%
14 | [Ba+2].[Cl-].[Cl-] [BaCl2] | 92% | 89% | 95% | 99% |  |  | 
15 | [Cl][V]([Cl])[Cl] [VCl3] | 96% | 106% | 89% | 94% |  |  | 
16 | N[C@@H](CCC(=O)N[C@@H](CS)C(=O)NCC(=O)O)C(=O)O [Glutathion, reduced] |  |  |  |  |  |  | Relative activity (%) (AcR5b-acylase): 112; Relative activity (%) (AcR5b-acylase; pH 8): 113; Relative activity (%) (Ac6-acylase; pH 8): 106; activity at 10000 µM (Ac6-acylase): 102%; Relative activity (%) [2]: 104 and 93
17 | O=S(=O)(F)Cc1ccccc1 [Phenylmethyl-sulfonyl fluoride] | 44% |  | 0% | 0% |  |  | Relative activity (%) (Ac6-acylase; compound 0.01 mM): 17%; Relative activity (%) (Ac6-acylase; compound 0.1 mM): 4.8%; Relative activity (%) ([2]; compound 0.01 mM): 0%; Relative activity (%) ([2]; compound 0.1 mM): 0%
18 | [Cl][Mn][Cl] [MnCl2] | 99% | 60% | 87% | 87% | 94% | 83% | 
19 | O[C@H](CS)[C@H](O)CS (racemic) [Dithiothreitol] | 35% | 5.4% | 103% |  | 112% | 77% | activity at 10000 µM (Ac6-acylase; [6]): 100%
20 | N[C@@H]1CONC1=O [D-cycloserine] |  |  |  |  | 104% | 96% | 
21 | OCCS [Mercaptoethanol] | 115% | 69% | 104% |  | 106% | 101% | activity at 10000 µM (Ac6-acylase; [6]): 108%
22 | [Ca+2].[Cl-].[Cl-] [CaCl2] | 92% | 88% | 90% | 83% | 89% | 85% | 
